Laboratory results as given in ChEMBL document CHEMBL1150221, “Isolation and structure determination of nostocyclopeptides A1 and A2 from the terrestrial cyanobacterium Nostoc sp. ATCC53789” (J Nat Prod, 2001).
Calls of active or inactive are those of the source. No cut-off for these calls is given here.

Key:
KB = experiment: Cytotoxicity against human KB cells; type: functional, cell-based
LoVo = experiment: Cytotoxicity against human LoVo cells; type: functional, cell-based
Candida albicans = experiment: Antifungal activity against Candida albicans at 25 ug/disk; type: functional, organism-based
Pseudomonas aeruginosa = experiment: […] activity against Pseudomonas aeruginosa at 25 ug/disk; type: functional, organism-based
[1] = test system: Mycobacterium tuberculosis; experiment: […] activity against Mycobacterium tuberculosis 25177 at 25 ug/disk; type: functional, organism-based
[2] = test system: Mycobacterium tuberculosis; experiment: […] activity against Mycobacterium tuberculosis 35818 at 25 ug/disk; type: functional, organism-based
[3] = Inhibition of protease
[4] = Inhibition of trypsin
[5] = Inhibition of chymotrypsin
Plasminogen = Plasminogen (Homo sapiens, UniProt P00747); experiment: Inhibition of plasmin
[6] = Inhibition of elastase
Papain = target: T1, Papain (Carica papaya, UniProt P00784); experiment: Inhibition of papaya papain
T1 sequence (P00784 whole entry): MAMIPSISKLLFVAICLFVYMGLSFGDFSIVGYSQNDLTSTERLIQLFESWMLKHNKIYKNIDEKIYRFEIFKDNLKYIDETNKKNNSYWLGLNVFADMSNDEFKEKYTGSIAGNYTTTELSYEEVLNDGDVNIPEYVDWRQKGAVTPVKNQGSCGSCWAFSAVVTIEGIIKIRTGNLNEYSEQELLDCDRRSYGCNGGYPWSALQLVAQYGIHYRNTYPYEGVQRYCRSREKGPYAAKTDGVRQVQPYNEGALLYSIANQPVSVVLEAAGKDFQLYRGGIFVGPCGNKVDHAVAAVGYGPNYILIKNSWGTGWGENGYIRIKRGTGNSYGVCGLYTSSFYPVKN

Prothrombin = Prothrombin (Homo sapiens, UniProt P00734); experiment: Inhibition of thrombin

Plasminogen, sequence (P00747 97-580 limits assumed): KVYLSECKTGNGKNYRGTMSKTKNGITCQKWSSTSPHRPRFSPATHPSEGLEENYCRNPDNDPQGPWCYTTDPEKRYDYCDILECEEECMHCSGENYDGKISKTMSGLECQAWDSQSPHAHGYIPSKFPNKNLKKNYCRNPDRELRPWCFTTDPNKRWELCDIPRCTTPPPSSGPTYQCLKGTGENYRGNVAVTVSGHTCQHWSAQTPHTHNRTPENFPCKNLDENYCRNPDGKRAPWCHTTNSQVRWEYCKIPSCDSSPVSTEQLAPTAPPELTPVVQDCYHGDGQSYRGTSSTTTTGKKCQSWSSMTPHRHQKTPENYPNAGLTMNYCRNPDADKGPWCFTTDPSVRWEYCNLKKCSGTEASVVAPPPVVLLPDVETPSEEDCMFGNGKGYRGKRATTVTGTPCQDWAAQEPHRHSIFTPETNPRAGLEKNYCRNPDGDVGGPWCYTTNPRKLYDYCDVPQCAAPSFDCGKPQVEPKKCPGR
Plasminogen, sequence (P00747 581-810 limits assumed): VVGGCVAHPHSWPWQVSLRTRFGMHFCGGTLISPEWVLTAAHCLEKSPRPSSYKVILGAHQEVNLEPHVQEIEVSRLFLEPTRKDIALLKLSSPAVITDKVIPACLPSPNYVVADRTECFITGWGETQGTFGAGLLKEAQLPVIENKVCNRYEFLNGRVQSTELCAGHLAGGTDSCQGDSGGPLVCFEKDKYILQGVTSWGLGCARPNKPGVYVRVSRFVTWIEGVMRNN

SMILES | IC50 (KB) [µM] | IC50 (LoVo) [µM] | Activity (Candida albicans) | Activity (Pseudomonas aeruginosa) | Activity [1] | Activity [2] | Activity [3] | IC50 [4] [µM] | IC50 [5] [µM] | IC50 (Plasminogen) [µM] | IC50 [6] [µM] | IC50 (Papain) [µM] | IC50 (Prothrombin) [µM]
CC[C@H](C)[C@@H]1NC(=O)[C@@H](CCC(N)=O)NC(=O)CNC(=O)[C@H](Cc2ccc(O)cc2)/N=C/[C@H](CC(C)C)NC(=O)[C@@H]2C[C@H](C)CN2C(=O)[C@H](CO)NC1=O [NOSTOCYCLOPEPTIDE A1] | 1 | 1 | inactive | inactive | inactive | inactive | inactive | > 50 | < 25 | > 50 | < 25 | < 25 | > 50
CC[C@H](C)[C@@H]1NC(=O)[C@@H](CCC(N)=O)NC(=O)CNC(=O)[C@H](Cc2ccc(O)cc2)/N=C/[C@H](Cc2ccccc2)NC(=O)[C@@H]2C[C@H](C)CN2C(=O)[C@H](CO)NC1=O [NOSTOCYCLOPEPTIDE A2] | 1 | 1 | inactive | inactive | inactive | inactive | inactive | > 50 | < 25 | > 50 | < 25 | < 25 | > 50
